Measurements reported in patent publication US9540691B2, “Assays and methods for selecting a treatment regimen for a subject with depression” (THE GENERAL HOSPITAL CORPORATION, priority 2011, dated 2017).
Like-named read-outs stand apart in the source and are kept apart here.

Test system: MDD patients carrying the indicated conditions
Conditions: Phase I, with SSRI
Method: Folate levels are classified as either low (<=2.5 ng/ml) or normal; and homocysteine levels as either normal or elevated (>=[…]). The presence or absence of at least one […] allele for the MTHFR gene are entered as a dichotomous variable (present or absent). […] Using folate as an example predicator, the presence or absence of a low serum-folate level along with treatment assignment can be entered in a 2×2, factorial ANOVA, using depression improvement scores (baseline minus endpoint HAM-D-17 scores) as the dependant variable. […] Similar analyses (i.e. separate 2×2 ANOVA's) can be performed substituting the presence of low folate levels for the presence of other predictors as described herein. Similarly, the effect of other predictors can be indicated by the interaction term representing the potential modulating influence of those variables.
Particularly, specific genetic and biomarkers that were assessed include the following: • (a) BMI calculation of at least about 30 kg/m^2; • (b) an expression ratio of SAM/SAH smaller than 2.8 (e.g., 2.71) as measured in a plasma sample; • (c) a level of 4-HNE no less than 3.28 μg/mL (as measured in a plasma sample); • (d) presence of rare variants CT or TT at position 677 of SEQ ID NO: 1 corresponding to a portion of a genomic nucleic acid sequence of methylenetetrahydrofolate reductase (MTHFR) (abbreviated as “MTHFR 677” below); • (e) presence of rare variants AG or GG at position 2756 of SEQ ID NO: 2 corresponding to a portion of genomic nucleic acid sequence of methionine synthase (MTR) (abbreviated as “MTR 2756” below); and • (f) presence of rare variants AG or GG at position 66 of SEQ ID NO: 3 corresponding to a portion of genomic nucleic acid sequence of methionine synthase reductase (MTRR) (abbreviated as “MTRR 66” below).
The efficacy effect is determined by measuring the mean change in the HAMD-17 score and HAMD-28 score by the end of Phase I and Phase II, as compared to the baseline.

CN1c2c(nc(N)[nH]c2=O)NC[C@@H]1CNc1ccc(C(=O)N[C@@H](CCC(=O)O)C(=O)O)cc1 [6(S)-5-MTHF, 6(S)-5-methyltetrahydrofolate]
Effect, change in HAMD-17 score (25 =< BMI < 30 kg/m^2 (18, 10)): 2.600 | Effect, change in HAMD-28 score (25 =< BMI < 30 kg/m^2 (18, 10)): 2.602 | Effect, change in HAMD-17 score (BMI < 25 (14, 7)): 1.576 | Effect, change in HAMD-28 score (BMI < 25 (14, 7)): 0.909 | Effect, change in HAMD-17 score (BMI < 30 kg/m^2 and HNE-His < median (19, 9)): 3.771 | Effect, change in HAMD-28 score (BMI < 30 kg/m^2 and HNE-His < median): 4.606 | Effect, change in HAMD-17 score (BMI < 30 kg/m^2 and SAM/SAH >= median (16,8)): 4.333 | Effect, change in HAMD-28 score (BMI < 30 kg/m^2 and SAM/SAH >= median): 4.333 | Effect, change in HAMD-17 score (BMI >= 30 kg/m^2 (40,21)): −6.414 | Effect, change in HAMD-28 score (BMI >= 30 kg/m^2 (40,21)): −6.677 | Effect, change in HAMD-17 score (BMI >= 30 kg/m^2 and HNE-His >= median (23, 11)): −6.569 | Effect, change in HAMD-28 score (BMI >= 30 kg/m^2 and HNE-His >= median): −6.510 | Effect, change in HAMD-17 score (BMI >= 30 kg/m^2 and SAM/SAH < median (21,9)): −5.611 | Effect, change in HAMD-28 score (BMI >= 30 kg/m^2 and SAM/SAH < median = 2.71 (plasma sample)): −6.306 | Effect, change in HAMD-17 score (MTHFR 677 CC and BMI < 30 kg/m^2 (17,8)): 4.500 | Effect, change in HAMD-28 score (MTHFR 677 CC and BMI < 30 kg/m^2): 2.769 | Effect, change in HAMD-17 score (MTHFR 677 CC and HNE-His < median (20,11)): −1.471 | Effect, change in HAMD-28 score (MTHFR 677 CC and HNE-His < median = 3.28 (plasma sample)): −2.821 | Effect, change in HAMD-17 score (MTHFR 677 CC and MTR 2756 AA (29,13)): −0.700 | Effect, change in HAMD-28 score (MTHFR 677 CC and MTR 2756 AA): −0.192 | Effect, change in HAMD-17 score (MTHFR 677 CT or TT and BMI >= 30 kg/m^2 (13,6)): −8.738 | Effect, change in HAMD-28 score (MTHFR 677 CT or TT and BMI >= 30 kg/m^2): −9.857 | Effect, change in HAMD-17 score (MTHFR 677 CT or TT and HNE-His >= median (11,6)): −7.143 | Effect, change in HAMD-28 score (MTHFR 677 CT or TT and HNE-His >= median): −6.929 | Effect, change in HAMD-17 score (MTHFR 677 CT or TT and MTR 2756 AG or GG (8,4)): −13.47 | Effect, change in HAMD-28 score (MTHFR 677 CT or TT and MTR 2756 AG or GG): −18.00 | Effect, change in HAMD-17 score (MTR 2756 AA (45,21)): −0.621 | Effect, change in HAMD-17 score (MTR 2756 AA and BMI < 30 kg/m^2 (17,7)): 4.476 | Effect, change in HAMD-28 score (MTR 2756 AA and BMI < 30 kg/m^2): 5.524 | Effect, change in HAMD-17 score (MTR 2756 AA and HNE-His < median (26,13)): 0.306 | Effect, change in HAMD-28 score (MTR 2756 AA and HNE-His < median): 0.639 | Effect, change in HAMD-17 score (MTR 2756 AA and MTRR 66 AA (11,5)): 3.125 | Effect, change in HAMD-17 score (MTR 2756 AA and MTRR 66 AA and HNE-His < median (6,4)): 3.000 | Effect, change in HAMD-28 score (MTR 2756 AA and MTRR 66 AA and HNE-His < median = 3.28 (plasma sample)): 4.200 | Effect, change in HAMD-17 score (MTR 2756 AA and MTRR 66 AA and SAM/SAH >= median (6,3)): −0.400 | Effect, change in HAMD-28 score (MTR 2756 AA and MTRR 66 AA and SAM/SAH >= median): −1.000 | Effect, change in HAMD-28 score (MTR 2756 AA and MTRR 66 AA): 5.000 | Effect, change in HAMD-17 score (MTR 2756 AA and SAM/SAH >= median (24,12)): −1.556 | Effect, change in HAMD-28 score (MTR 2756 AA and SAM/SAH >= median): −1.278 | Effect, change in HAMD-28 score (MTR 2756 AA): 0.409 | Effect, change in HAMD-17 score (MTR 2756 AG or GG and BMI >= 30 kg/m^2 (10,5)): −12.905 | Effect, change in HAMD-28 score (MTR 2756 AG or GG and BMI >= 30 kg/m^2): −18.762 | Effect, change in HAMD-17 score (MTR 2756 AG or GG and HNE-His >= median (13,7)): −7.125 | Effect, change in HAMD-28 score (MTR 2756 AG or GG and HNE-His >= median = 3.28 (plasma sample)): −9.950 | Effect, change in HAMD-17 score (MTR 2756 AG or GG and MTRR 66 AG or GG (15,7)): −6.900 | Effect, change in HAMD-17 score (MTR 2756 AG or GG and MTRR 66 AG or GG and BMI >= 30 kg/m^2 (8,4)): −13.667 | Effect, change in HAMD-28 score (MTR 2756 AG or GG and MTRR 66 AG or GG and BMI >= 30 kg/m^2): −18.833 | Effect, change in HAMD-17 score (MTR 2756 AG or GG and MTRR 66 AG or GG and HNE-His >= median (10,4)): −7.200 | Effect, change in HAMD-28 score (MTR 2756 AG or GG and MTRR 66 AG or GG and HNE-His >= median): −9.800 | Effect, change in HAMD-17 score (MTR 2756 AG or GG and MTRR 66 AG or GG and SAM/SAH < median (8,3)): −9.000 | Effect, change in HAMD-28 score (MTR 2756 AG or GG and MTRR 66 AG or GG and SAM/SAH < median = 2.71 (plasma sample)): −12.741 | Effect, change in HAMD-28 score (MTR 2756 AG or GG and MTRR 66 AG or GG): −9.996 | Effect, change in HAMD-17 score (MTR 2756 AG or GG and SAM/SAH < median (10,4)): −9.800 | Effect, change in HAMD-28 score (MTR 2756 AG or GG and SAM/SAH < median = 2.71 (plasma sample)): −14.993 | Effect, change in HAMD-17 score (MTR 2756 AG/GG (20,11)): −7.143 | Effect, change in HAMD-28 score (MTR 2756 AG/GG): −10.926
